Data: patent US9562060B2, “Heterocyclic pyridone compound, and intermediate, preparation method and use thereof” (SHANGHAI HUILUN LIFE SCIENCE & TECHNOLOGY CO., LTD, priority 2011, dated 2017)
Read-outs that look alike come from different tables or passages of the source.

Key:
c-Met kinase = biological target: T1, c-Met kinase (Homo sapiens, UniProt P08581); test: Inhibitory activity of compound to c-Met kinases (Z'-LYTE kinase assay kit); type: biochemical; settings: Tyr 6 substrate peptide, read-out: Strength of activity (inhibition on c-Met kinase, IC50)
T1 construct: purchased Invitrogen PV3143
T1 sequence (P08581 25-1390): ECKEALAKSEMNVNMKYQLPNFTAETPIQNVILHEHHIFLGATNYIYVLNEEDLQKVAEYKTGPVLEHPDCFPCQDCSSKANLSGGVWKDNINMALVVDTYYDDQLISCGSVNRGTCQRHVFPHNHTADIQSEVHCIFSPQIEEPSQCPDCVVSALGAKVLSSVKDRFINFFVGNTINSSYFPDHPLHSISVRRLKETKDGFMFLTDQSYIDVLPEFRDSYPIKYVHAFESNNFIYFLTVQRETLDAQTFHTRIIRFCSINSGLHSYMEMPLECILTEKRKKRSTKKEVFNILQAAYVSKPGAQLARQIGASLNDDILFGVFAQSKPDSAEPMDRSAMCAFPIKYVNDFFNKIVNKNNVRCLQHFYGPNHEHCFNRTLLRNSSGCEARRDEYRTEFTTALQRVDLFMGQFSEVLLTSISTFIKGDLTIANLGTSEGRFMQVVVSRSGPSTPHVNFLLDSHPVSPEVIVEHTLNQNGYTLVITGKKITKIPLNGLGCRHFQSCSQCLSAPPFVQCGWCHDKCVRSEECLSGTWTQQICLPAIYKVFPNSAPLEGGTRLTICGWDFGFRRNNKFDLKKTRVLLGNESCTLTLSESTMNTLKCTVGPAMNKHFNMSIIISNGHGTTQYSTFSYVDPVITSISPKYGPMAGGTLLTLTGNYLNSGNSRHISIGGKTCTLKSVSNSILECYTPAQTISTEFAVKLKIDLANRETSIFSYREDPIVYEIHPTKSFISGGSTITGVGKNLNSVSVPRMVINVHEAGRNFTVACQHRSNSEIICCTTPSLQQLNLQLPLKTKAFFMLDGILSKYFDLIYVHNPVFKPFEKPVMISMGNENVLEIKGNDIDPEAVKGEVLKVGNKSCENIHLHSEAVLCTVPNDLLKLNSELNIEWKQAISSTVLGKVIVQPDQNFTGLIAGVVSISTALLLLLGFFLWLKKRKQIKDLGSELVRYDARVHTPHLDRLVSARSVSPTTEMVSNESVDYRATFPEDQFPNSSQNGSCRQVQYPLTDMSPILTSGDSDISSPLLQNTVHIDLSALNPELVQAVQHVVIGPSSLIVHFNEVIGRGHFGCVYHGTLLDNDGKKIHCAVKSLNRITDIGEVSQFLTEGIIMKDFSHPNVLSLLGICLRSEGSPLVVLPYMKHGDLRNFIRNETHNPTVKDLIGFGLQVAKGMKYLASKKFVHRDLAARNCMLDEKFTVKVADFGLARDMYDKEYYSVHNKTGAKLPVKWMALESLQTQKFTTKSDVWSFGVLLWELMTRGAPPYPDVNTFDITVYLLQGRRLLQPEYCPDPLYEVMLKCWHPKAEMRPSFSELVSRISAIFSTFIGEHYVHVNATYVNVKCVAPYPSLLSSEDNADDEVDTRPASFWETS
Method: The inhibitory activity of the compound to c-Met kinases in vitro is determined through the following method.
The method described below can be used to determine the inhibiting capacity of the compound of the present invention on the c-Met kinase activity, and the inhibiting capacity is represented by IC50. The half inhibitory concentration IC50 (a concentration of the compound for inhibiting the enzyme activity to 50%) of the compound is obtained by: mixing and reacting a certain amount of kinase with a specific substrate and different concentrations of test compound, and then labeling the substrate with an anti-phosphotyrosine antibody and a […], and finally quantitatively determining the c-Met kinase activity through a time-resolved fluorescence method.
The specific experiment is implemented by using a Z′-LYTE kinase assay kit (Invitrogen, item PV4122). First, the test compound is diluted into 8 different concentrations from 100 μM at an interval of 1:5 with an ATP solution (Invitrogen, item PV3227); 5 μL 2×c-Met (Invitrogen, item PV3143) and 2×Z′-LYTE Tyr 6 substrate peptide are respectively taken up, and added to a 384-well microtiter plate, 5 μL diluted different concentrations of test compound are added in sequence, and the lid is closed. The microtiter plate is incubated for 60 min at room temperature (20° C. to 25° C.); and then 5 μL […] is added, and the lid is closed. The microtiter plate is incubated for 60 min at room temperature (20° C. to 25° C.); and then 5 μL termination reagent is added to the reaction well, to terminate the reaction. Finally, the fluorescence intensity (OD400) of each well is determined in a fluorescence analyzer (excitation wavelength: 400 nm). The inhibition rate is calculated, and the half inhibitory concentration (IC50) of the compound is calculated according to the inhibition rates of different concentrations.
For a negative control group, except that test compound (replaced by 5 μL ATP solution) is not added, all the other reagents are added. In addition, an enzyme-free control group (that is, blank group) is set.

[1] = test system: human malignant glioma U87-MG xenografts; test: Efficacy on human malignant glioma U87-MG xenografts in nude mice; type: in vivo, BALB/cA-nude nude mice; settings: 100 mg/kg orally once per day for 16 days
Method: The human malignant glioma U87-MG is purchased from ATCC (American Type Culture Collection), America.
BALB/cA-nude nude mice (♀, 6-7 weeks old) are purchased from Shanghai SLAC Laboratory Animal Co. Ltd. Breeding environment: SPF grade.
In vitro-cultured malignant glioma U87-MG cells are inoculated subcutaneously in nude mice, and after the tumor grows to a size of 100 to 250 mm^3, the animals are randomly divided into groups (d0). The dose of the test agent is 100 mg/kg, and the agent is orally administered once per day for continuous 16 days. The volume of the tumor is measured two to three times per week, the mice are weighed, and the data is recorded. The tumor volume (V) is calculated according to the equation: V=1/2×a×b^2, where a and b respectively represent length and width.
The antineoplastic efficacy is evaluated according to tumor inhibition rate, and the tumor inhibition rate is calculated according to the equation below: Tumor inhibition rate=1−(T−T0)/(C−C0), • where T and C are respectively tumor volumes of the test agent group mice and the blank group mice at the end of the experiment; and T0 and C0 are tumor volumes at the start of the experiment.

[2] = test system: Human gastric cancer cell SNU-5; test: Inhibition of in vitro proliferation of human gastric cancer cell SNU-5 (SRB); type: cell-based; settings: SNU-5 cells, 72-hr agent treatment, read-out: Strength of activity (inhibition on SNU-5, IC50)
Method: Human gastric cancer cells SNU-5 are cultured in an IMDM medium containing 20% fetal bovine serum, and the culture conditions are 37° C. and 5% CO2. Tumor cells are inoculated in a 96-well plate, and after 24-hr sidewall growth, 9 different concentrations of (1 to 30000 nM) an agent are added, after 72-hr agent treatment, the medium is discarded, the cells are fixed by cold trichloroacetic acid, and then dyed with a sulforhodamine B (SRB) solution. Unbound SRB is washed off, and SRB bound with protein was dissolved with Tris, the OD is determined at a wavelength of 510 nm by a microplate reader, and the cell growth inhibition rate is calculated according to the following equation: Inhibition rate=(OD of control well-OD of administered well)/OD of control well×100%
According to the inhibition rates of different concentrations, the half inhibitory concentration IC50 is calculated by using a Logit method.

Structure (SMILES) | IC50 (c-Met kinase) | Tumor Inhibition Rate (%) [1] | IC50 ([2]; Homo sapiens) | IC50 [2]
Nc1nccc(Oc2ccc(NC(=O)c3cc4ncsc4n(-c4ccc(F)cc4)c3=O)cc2F)c1Cl [Embodiment 2] | < 0.01 µM | 16% | 0.1 to 0.5 µM | –
COc1cc2c(Oc3ccc(NC(=O)c4cc5ncsc5n(-c5ccc(F)cc5)c4=O)cc3F)ccnc2cc1OCCCN1CCOCC1 [Embodiment 5] | < 0.01 µM | 74% | – | < 0.1 µM
O=C(Nc1ccc(Oc2ccnc3[nH]ccc23)c(F)c1)c1cc2ncsc2n(-c2ccc(F)cc2)c1=O [Embodiment 4] | < 0.01 µM | 26% | – | 0.1 to 0.5 µM
Nc1cc(Oc2ccc(NC(=O)c3cc4ncsc4n(-c4ccc(F)cc4)c3=O)cc2F)ccn1 [Embodiment 1] | 0.01 to 0.1 µM | 62% | < 0.1 µM | –
COc1ccc2c(Oc3ccc(NC(=O)c4cc5ncsc5n(-c5ccc(F)cc5)c4=O)cc3F)ccnc2c1 [Embodiment 3] | 0.01 to 0.1 µM | 91% | 0.1 to 0.5 µM | –
